From patent EP0149818A2, “1,4-Naphthoquinone derivatives, process for their preparation and their use as medicines” (Troponwerke GmbH & Co. KG, priority 1983, dated 1985)

Assays:
[1] = test system: Metabolisierung der Arachidonsäure über den Cyclooxygenaseweg; test: Inhibition of arachidonic acid metabolism via the cyclooxygenase pathway (method of Brune et al.); type: cell-based
Text: Wie die meisten NSAID (non steroidal antiinflammatory drugs) hemmen auch die meisten Verbindungen der allgemeinen Formel I die Metabolisierung der Arachidonsäure über den Cyclooxygenaseweg mehr oder weniger stark (Methode von Brune et al., Naunyn-Schmiedeberg's Arch. Pharmacol. 315, 269 (1981)). Die IC50 für Verb. 1 in diesem Test beträgt 2.6 x 10-^6 Mol/l.

[2] = test system: durch das chemotaktisch wirkende FMLP stimulierte Aggregation von PMN-Leukozyten; test: Inhibition of FMLP-stimulated aggregation of PMN leukocytes (method of Cunningham et al.); type: cell-based; conditions: Leukocyte
Text: Darüber hinaus konnte für eine Reihe von Verbindungen der allgemeinen Formel I nachgewiesen werden, daß sie die durch das chemotaktisch wirkende FMLP stimulierte Aggregation von PMN-Leukozyten hemmen und dadurch Anteil an der entzündungshemmenden Wirkung haben (Methode von Cunningham et al., Agents & Actions 11, 583 (1981)). Für Verb. 1 ist die IC50 in diesem Test 3.7 x 10^-5 Mol/l.

[3] = test system: durch Carrageenan ausgelöste ödem der Rattenpfote; test: Carrageenan-induced rat paw oedema (method of Winter et al., modified: pure λ-carrageenan as 0,25 % suspension in saline); type: in vivo, Ratte; conditions: po, p.o, λ-carrageenan 0,25 % suspension, read-out: DE50 (the source's name)
Procedure: Die Verbindungen der allgemeinen Formel I hemmen das durch Carrageenan ausgelöste ödem der Rattenpfote stark. Zum Nachweis diente die Methode von Winter et al., Proc. Soc. Exp. Bil. Med. 111, 544 (1962), mit der Abwandlung, daß zur ödemauslösung reines λ-carrageenan als 0,25 % Suspension in physiologischer Kochsalzlösung verwendet wurde. Beispielhaft wurde in diesem Testmodell für Verb. 1 die DE50 = 0,5 mg/kg p.o ermittelt.

- IC50 [1]: 2.6 µM
- IC50 [2]: 37 µM
SMILES: O=C1C(O)=C(NCc2ccccc2)C(=O)c2ccccc21 [Verb. 1, 2-Benzylamino-3-hydroxy-naphthochinon-1,4]
- ED50 [3]: 0.5 mg/kg
